These results are taken from patent publication US20240190854A1, “PYRIMIDINE OR PYRIDINE DERIVATIVES USEFUL AS HCN2 MODULATORS” (King's College London, priority 2021, published 2024).

Data set [1] deals with MDR1 (P-glycoprotein) (Homo sapiens (Human), UniProt P08183). In words: in vitro. The settings on record: dog, MDCK-MDR1, pH 7.4.
Protocol: Test compounds were added (10 μM, 0.1% DMSO final, n=2) to donor compartments of the Transwell plate assembly in assay buffer (Hanks balanced salt solution supplemented with 25 mM HEPES, adjusted to pH 7.4) for both apical to basolateral (A>B) and basolateral to apical (B>A) measurements. A parallel series of incubations were performed in the presence of the transporter inhibitor elacridar (5 μM) which was added to both compartments in the transwell plate. Incubations were performed at 37° C., with samples removed from both donor and acceptor chambers at T=0 and 1 hour for recovery assessment and compound analysed by mass spectrometry (LC-MS/MS), including an analytical internal standard.
Apparent permeability (Papp) values were determined from the relationship:
Where V is the volume of each Transwell compartment (apical 125 μL, basolateral 600 μL), and concentrations are the relative MS responses for compound (normalized to internal standard) in the donor chamber before incubation and acceptor chamber at the end of the incubation.
Area=area of cells exposed for drug transfer (0.33 cm2).
Efflux ratios (Papp B>A/Papp A>B) were calculated for each compound from the mean Papp values in each direction. […] The efflux ratios were also calculated in the same way from the runs carried out in the presence of the inhibitor. The net flux is the ratio of the efflux in the absence of inhibitor to that in the presence of inhibitor.
Lucifer Yellow (LY) was added to the apical buffer in all wells to assess viability of the cell layer.
Compound recovery from the wells was determined from MS responses (normalized to internal standard) in donor and acceptor chambers at the end of incubation compared to response in the donor chamber pre-incubation.
The target in data set [2] is HCN4 (Homo sapiens (Human), UniProt Q9Y3Q4). Description: HCN4 current assay using the Sophion Qube. It counts as cell-based. The conditions noted are these: Sophion Qube protocol; read-out: SQ HCN4 IC50. Here is the method:
(§1) Example 126B, Using the Sophion Qube
(§2) Solutions for recording HCN currents were:
(§3) This voltage protocol was applied every 20 seconds for the duration of the experiment. Both the vehicle (0.3% DMSO) and full block (3 mM CsCl) addition periods were applied for 10 experimental sweeps each.
(§4) The current amplitudes were measured by subtracting metric A from metric B (see FIG. 2) with inhibition calculated by normalising to the vehicle addition (0.3% DMSO) and full inhibition by 3 mM CsCl in the same well.
(§5) In total, compound was applied to the well for 600 seconds.

For data set [3], the target named is HCN1 (Homo sapiens (Human), UniProt O60741). Description: HCN1 current assay using the Sophion Qube. The conditions noted are these: Sophion Qube protocol; read-out: SQ HCN1 IC50. It counts as cell-based. Here is the method: as §1, §2, §3, §4, §5
Data set [4] deals with hERG channel (Homo sapiens (Human), UniProt Q12809). Description: hERG assay using Sophion Qube. The format is cell-based. The settings on record: Sophion Qube protocol; read-out: SQ hERG IC50. Here is the method:
Example 127B, Using Sophion Qube
Solutions for recording hERG currents were:
This voltage protocol was applied every 15 seconds for the duration of the experiment. Both the vehicle and 1st compound addition periods were applied for 10 sweeps. The 2nd compound addition period was applied for 20 sweeps. The compound concentration was added to the test well twice to assure complete exchange of the external buffer with the test compound. In total, compound was applied to the well for 450 seconds.

The target of data set [5] is hNav1.5 (Homo sapiens (Human), UniProt Q14524).
Protocol: The cells were held at −100 mV followed by a depolarising step to −10 mV for 100 milliseconds before stepping back to −100 mV, this represents 1 experimental sweep.
For tonic block (0.1 Hz), the peak currents evoked by the step to −10 mV were measured for the analysis of the percentage inhibition by test compounds. For use-dependent block (4 Hz), the peak current evoked at the 20th depolarising step to −10 mV was measured for the analysis of the percentage inhibition by test compounds. Peak currents were first normalised to the vehicle addition (0.3% DMSO) in the same well.
The target in data set [6] is HCN2 (Homo sapiens (Human), UniProt Q9UL51). In words: HCN2 current assay using the Sophion Qube. The settings on record: Sophion Qube protocol; read-out: SQ HCN2 IC50. The format is cell-based. As for the experimental part: as §1, §2, §3, §4, §5
Data set [7] deals with mouse neuropathic pain model (partial sciatic nerve ligation). Description: Mouse neuropathic pain model, paw pressure (Randall Sellito test). The format is in vivo.
For data set [8] the test system is unchanged. In words: Mouse neuropathic pain model (PSNL), von Frey filament. The format is in vivo. The conditions noted are these: for Mechanical analgesia (von Frey): day 5 after PSNL. Here is the method:
The model used was analogous to the model described in Seltzer Z, Dubner R, & Shir Y (1990), A novel behavioural model of neuropathic pain disorders produced in rats by partial sciatic nerve injury, Pain 43: 205-218). […] Sci Transl Med 9: eaam6072.
The mechanical pain threshold was measured by manual von Frey filament applied to hind paw on the operated side, using the “up-down” method.
Mechanical pain threshold was measured as in Example 133 1 day before and 8 days after partial sciatic nerve ligation (PSNL) neuropathic pain induction. The test compound was administered at a low dose of 0.2 mg/kg every two hours with a control arm of vehicle only injections.
Mechanical pain threshold was measured as in Example 133 1 day before and 5-8 days after partial sciatic nerve ligation (PSNL) neuropathic pain induction. The test compound was administered at a dose of 0.5 mg/kg twice-daily at 8 hour intervals with a control arm of vehicle only injections, and mechanical pain threshold was measured 4 hours after the first injection.

Data set [9] deals with guinea pigs, noise-exposure tinnitus. In words: GPIAS test, noise-exposure tinnitus model. It counts as in vivo, guinea pig. The source says: (§6) Tinnitus in guinea pigs was monitored using the gap induced inhibition of the acoustic startle (GPIAS) test (see FIG. 5). GPIAS is reduced when tinnitus was present; see Berger, J. I. et al. Effects of the cannabinoid CB1 agonist ACEA on salicylate ototoxicity, hyperacusis and tinnitus in guinea pigs. Hearing research, (2017), and Coomber, B. et al. Neural changes accompanying tinnitus following unilateral acoustic trauma in the guinea pig. Eur J Neurosci 40, 2427-2441, (2014).
(§7) In FIG. 5, sound stimulus (above) and corresponding pinna reflex (below) are shown in freely moving guinea pigs. Stimuli with no gap and gap are presented in a randomised order. Traces contaminated by movement (the upper trace in “no gap”) were removed before analysis.
The noise-exposure model is more clinically relevant than the salicylate model, as it parallels a common cause of tinnitus in humans. A second important point is that it is long-term, while tinnitus induced by salicylate is rapidly reversed following salicylate exposure.

Data set [10] relates to guinea pigs, salicylate-induced tinnitus. In words: GPIAS test, short-term salicylate tinnitus model. The conditions noted are these: salicylate 350 mg/kg i.p.; ivabradine 5 mg/kg s.c. The format is in vivo, guinea pig.
Excerpt: as §6, §7
Tinnitus was induced within 1-2 hours in humans by high doses of salicylate. A similar short-term tinnitus model was implemented in guinea pigs by i.p. injection of salicylate. In all animals, salicylate caused behavioural inhibition of GPIAS (see bar 2 in FIG. 6).
Salicylate (350 mg/kg, i.p.) impairs behavioural gap detection 2 h after salicylate administration (see bar 2 in of FIG. 6). Gap detection was restored by blocking HCN channels with ivabradine (5 mg/kg, s.c.).

The nature of data set [11]: CNS penetration: plasma, brain and auditory nerve levels. The format is in vivo. The settings on record: guinea pig, auditory nerve, other: injection; 30 min after injection, n=2, preliminary; read-out: Ratio of total concentrations auditory nerve : plasma. As for the experimental part: Ivabradine in guinea pig plasma, brain (somatosensory cortex) and auditory nerve were assayed at 30 min after injection, the time used in Example 130.

Data set [12] concerns Black6 mice. The settings on record: mouse, in vivo; cited from earlier work.
Data set [13] concerns mice, normal hearing. It counts as in vivo. The conditions noted are these: adult mice; Example 29 at 20 mg/kg ip.

Entries after “also recorded” stand apart in the source; their conditions may differ. Structures can show the parent of a compound that is named as a salt.

HCN1, sequence (O60741 whole entry, species assumed): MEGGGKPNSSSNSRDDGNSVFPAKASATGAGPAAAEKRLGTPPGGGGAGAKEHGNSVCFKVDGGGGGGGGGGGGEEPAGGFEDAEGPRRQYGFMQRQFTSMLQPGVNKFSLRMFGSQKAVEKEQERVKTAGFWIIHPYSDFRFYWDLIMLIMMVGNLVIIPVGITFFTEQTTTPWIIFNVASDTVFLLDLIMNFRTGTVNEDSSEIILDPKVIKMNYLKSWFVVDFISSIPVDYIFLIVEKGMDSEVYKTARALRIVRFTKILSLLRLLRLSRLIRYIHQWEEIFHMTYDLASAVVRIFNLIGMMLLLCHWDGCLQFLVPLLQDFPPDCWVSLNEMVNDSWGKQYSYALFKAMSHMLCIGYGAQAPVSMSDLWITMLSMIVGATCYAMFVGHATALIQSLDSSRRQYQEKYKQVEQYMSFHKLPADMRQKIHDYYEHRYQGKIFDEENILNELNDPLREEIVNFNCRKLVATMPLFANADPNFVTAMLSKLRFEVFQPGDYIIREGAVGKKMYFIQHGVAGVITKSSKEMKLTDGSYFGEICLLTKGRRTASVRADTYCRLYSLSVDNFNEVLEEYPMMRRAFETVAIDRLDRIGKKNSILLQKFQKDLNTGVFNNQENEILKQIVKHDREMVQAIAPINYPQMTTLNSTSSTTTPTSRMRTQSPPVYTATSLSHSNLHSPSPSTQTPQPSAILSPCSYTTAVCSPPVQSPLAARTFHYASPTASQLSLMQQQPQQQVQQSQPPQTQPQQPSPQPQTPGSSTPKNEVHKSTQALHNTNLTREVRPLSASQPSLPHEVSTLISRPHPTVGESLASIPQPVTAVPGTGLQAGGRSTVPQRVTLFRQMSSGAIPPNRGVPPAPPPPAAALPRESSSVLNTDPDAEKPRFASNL
MDR1 (P-glycoprotein), sequence (P08183 whole entry): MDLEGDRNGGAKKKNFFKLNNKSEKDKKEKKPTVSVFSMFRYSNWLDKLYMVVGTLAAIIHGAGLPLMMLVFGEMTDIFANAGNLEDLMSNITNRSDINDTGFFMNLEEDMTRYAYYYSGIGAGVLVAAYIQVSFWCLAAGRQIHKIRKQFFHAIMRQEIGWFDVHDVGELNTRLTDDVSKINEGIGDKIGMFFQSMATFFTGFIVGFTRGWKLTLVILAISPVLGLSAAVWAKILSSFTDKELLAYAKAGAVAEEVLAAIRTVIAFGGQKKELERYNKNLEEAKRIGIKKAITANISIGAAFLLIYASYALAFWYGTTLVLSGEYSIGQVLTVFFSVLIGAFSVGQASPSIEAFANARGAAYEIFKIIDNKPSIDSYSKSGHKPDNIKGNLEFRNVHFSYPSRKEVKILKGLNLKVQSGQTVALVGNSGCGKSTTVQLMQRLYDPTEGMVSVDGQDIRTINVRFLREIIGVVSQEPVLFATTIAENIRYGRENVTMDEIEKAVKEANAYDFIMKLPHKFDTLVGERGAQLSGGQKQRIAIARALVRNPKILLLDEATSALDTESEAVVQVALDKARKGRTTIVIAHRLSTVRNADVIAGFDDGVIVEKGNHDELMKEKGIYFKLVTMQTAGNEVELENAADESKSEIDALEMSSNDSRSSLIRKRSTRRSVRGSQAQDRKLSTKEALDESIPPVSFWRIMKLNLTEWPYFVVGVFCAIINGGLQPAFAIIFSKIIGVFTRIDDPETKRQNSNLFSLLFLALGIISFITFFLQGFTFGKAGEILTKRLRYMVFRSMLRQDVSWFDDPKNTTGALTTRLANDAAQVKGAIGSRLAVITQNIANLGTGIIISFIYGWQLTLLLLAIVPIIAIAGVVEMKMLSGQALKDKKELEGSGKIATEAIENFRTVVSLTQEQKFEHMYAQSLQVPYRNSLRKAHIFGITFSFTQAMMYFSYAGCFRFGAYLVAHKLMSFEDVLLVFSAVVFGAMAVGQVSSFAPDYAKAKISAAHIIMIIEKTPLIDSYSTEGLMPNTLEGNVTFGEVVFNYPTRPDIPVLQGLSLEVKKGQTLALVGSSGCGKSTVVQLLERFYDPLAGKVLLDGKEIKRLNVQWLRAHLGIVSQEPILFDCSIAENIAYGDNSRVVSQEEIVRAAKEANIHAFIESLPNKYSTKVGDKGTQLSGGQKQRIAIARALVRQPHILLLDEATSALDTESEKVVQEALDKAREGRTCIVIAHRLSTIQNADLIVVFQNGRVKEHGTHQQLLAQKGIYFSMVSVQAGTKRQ
hERG channel, sequence (Q12809 whole entry): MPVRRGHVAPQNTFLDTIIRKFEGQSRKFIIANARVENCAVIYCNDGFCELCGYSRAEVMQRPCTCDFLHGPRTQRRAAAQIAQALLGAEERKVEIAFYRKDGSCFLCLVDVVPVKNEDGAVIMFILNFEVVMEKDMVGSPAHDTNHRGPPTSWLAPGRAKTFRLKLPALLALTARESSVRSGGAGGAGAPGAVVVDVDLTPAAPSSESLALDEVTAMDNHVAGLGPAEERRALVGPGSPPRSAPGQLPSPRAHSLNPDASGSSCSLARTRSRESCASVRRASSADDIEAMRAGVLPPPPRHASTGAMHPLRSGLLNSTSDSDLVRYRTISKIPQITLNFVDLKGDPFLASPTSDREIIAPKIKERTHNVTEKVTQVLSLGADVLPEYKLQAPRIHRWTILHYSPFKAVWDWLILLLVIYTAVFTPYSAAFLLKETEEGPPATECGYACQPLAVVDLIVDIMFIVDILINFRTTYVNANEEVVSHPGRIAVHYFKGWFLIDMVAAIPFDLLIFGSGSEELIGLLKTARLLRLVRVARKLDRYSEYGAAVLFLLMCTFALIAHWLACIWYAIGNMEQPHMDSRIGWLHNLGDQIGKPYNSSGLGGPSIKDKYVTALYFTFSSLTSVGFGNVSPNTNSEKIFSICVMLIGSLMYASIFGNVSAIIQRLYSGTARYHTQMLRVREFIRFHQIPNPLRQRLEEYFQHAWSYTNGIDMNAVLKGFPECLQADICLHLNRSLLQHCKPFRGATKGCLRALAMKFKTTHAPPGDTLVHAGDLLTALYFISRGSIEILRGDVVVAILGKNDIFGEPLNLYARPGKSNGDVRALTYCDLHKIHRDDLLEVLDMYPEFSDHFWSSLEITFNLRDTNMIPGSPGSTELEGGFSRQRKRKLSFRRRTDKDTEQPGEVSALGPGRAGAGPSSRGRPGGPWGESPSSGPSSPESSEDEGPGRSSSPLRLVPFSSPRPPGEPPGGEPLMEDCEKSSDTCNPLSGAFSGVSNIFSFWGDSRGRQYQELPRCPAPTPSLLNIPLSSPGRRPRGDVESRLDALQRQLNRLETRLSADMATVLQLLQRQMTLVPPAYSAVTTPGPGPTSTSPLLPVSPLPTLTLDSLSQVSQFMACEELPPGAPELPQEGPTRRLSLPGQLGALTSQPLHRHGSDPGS
HCN4, sequence (Q9Y3Q4 whole entry, species assumed): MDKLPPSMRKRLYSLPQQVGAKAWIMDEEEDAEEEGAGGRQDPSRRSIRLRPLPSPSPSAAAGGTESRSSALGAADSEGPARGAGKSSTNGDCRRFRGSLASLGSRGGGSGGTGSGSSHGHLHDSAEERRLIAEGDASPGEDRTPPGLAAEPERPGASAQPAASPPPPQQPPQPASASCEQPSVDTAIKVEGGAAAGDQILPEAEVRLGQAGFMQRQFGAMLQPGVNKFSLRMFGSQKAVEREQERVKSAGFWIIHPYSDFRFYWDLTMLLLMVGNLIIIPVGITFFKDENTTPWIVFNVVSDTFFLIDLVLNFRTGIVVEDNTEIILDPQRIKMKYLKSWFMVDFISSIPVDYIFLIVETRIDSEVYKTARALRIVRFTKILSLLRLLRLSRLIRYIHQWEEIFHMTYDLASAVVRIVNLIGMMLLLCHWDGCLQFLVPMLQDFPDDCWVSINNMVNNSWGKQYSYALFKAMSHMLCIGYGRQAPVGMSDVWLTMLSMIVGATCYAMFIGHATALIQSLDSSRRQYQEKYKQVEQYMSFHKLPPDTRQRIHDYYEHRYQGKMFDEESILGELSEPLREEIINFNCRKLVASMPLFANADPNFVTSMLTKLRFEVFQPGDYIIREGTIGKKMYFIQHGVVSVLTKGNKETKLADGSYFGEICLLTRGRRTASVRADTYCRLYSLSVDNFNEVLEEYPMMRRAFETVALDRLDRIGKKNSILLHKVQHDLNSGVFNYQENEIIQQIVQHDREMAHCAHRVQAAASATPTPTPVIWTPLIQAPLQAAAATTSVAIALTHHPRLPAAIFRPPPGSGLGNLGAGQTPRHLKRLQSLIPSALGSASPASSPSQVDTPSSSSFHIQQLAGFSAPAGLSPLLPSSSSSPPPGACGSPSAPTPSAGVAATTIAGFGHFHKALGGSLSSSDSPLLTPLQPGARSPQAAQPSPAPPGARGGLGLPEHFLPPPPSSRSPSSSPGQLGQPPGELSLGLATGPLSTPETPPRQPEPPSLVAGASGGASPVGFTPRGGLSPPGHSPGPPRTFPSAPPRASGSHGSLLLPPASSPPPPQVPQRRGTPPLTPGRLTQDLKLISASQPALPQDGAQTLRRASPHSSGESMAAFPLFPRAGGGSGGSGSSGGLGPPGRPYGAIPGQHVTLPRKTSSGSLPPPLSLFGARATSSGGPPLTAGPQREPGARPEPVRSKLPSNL

Consider `CS(=O)(=O)c1ccc(F)c(C[C@H](N)c2ccccc2-c2noc3c(F)cccc23)n1` [Example 26, (S)-1-[2-(7-Fluorobenzo[d]isoxazol-3-yl)phenyl]-2-(3-fluoro-6-methylsulfonylpyridin-2-yl)ethan-1-amine hydrochloride], for which the efflux ratio (as a rule, a quotient of directional permeabilities that is used to spot active efflux) at 1 h, 10 μM in data set [1] came to 4.2. Further, the half-maximal inhibitory concentration (IC50) (usually the concentration that inhibits the measured activity by half) in [2] is more than 30 µM; in data set [3], 25.7 µM; in data set [4] it was 15.1 µM; in data set [5], 19.2 µM; in [6], 1.8 µM.
For the compound `CS(=O)(=O)c1ccc(F)c(C[C@H](N)c2ccccc2-c2noc3cc(F)ccc23)n1` [Example 20, (S)-2-(3-Fluoro-6-methylsulfonylpyridin-2-yl)-1-[2-(6-fluorobenzo[d]isoxazol-3-yl)phenyl]ethan-1-amine hydrochloride], in data set [1], the efflux ratio at 1 h, 10 μM came to 6.2. In addition, the 50% inhibitory concentration (IC50) in [2] was more than 30 µM; in [3], 16.9 µM; in [4] it was 2.9 µM; in [5], 28.1 µM; in data set [6], 3.1 µM.
With `CS(=O)(=O)c1ccc(F)c(C[C@H](N)c2ccccc2-c2noc3ccccc23)n1` [Example 5, (S)-1-[2-(Benzo[d]isoxazol-3-yl)phenyl]-2-[3-fluoro-6-(methylsulfonyl)pyridine-2-yl]ethan-1-amine hydrochloride], the “Analgesia, paw pressure (Randall Sellito)” value in data set [7] (0.1 mg/kg i.p.) is recorded as “partial analgesia”; in [7] (0.5 mg/kg i.p.) it was “full analgesia”. Moreover, the “Mechanical analgesia (von Frey)” value was “partial analgesia” in data set [8] (0.1 mg/kg i.p.) and “full analgesia” in data set [8] (0.5 mg/kg i.p.). In [8] (0.2 mg/kg every two hours, first dose), the “Mechanical analgesia (von Frey), first dose” value is listed as “only partial analgesia”. Also, the “Mechanical analgesia (von Frey), subsequent doses” value in [8] (0.2 mg/kg every two hours, subsequent doses) is “increase in analgesia towards full analgesia”. In data set [8] (0.5 mg/kg twice-daily at 8 hour intervals, 4 days), the “Mechanical analgesia (von Frey), successive doses over 4 days” value is “full and sustained analgesia”. For the same compound, the “Mechanical analgesia (von Frey), 4 hours after first injection” value in [8] (0.5 mg/kg twice-daily at 8 hour intervals, first injection) is on record as “little analgesia”. Further, the ED50 – broadly, the dose that gives a 50% effect, or the effect in half of the subjects – in data set [8] (Mus musculus, ip, maximal analgesia, n=3-4 mice, read-out: Analgesic ED50) worked out at 0.17 mg/kg.
Regarding `Cc1ccc2c(-c3ccccc3[C@@H](N)Cc3nc(S(C)(=O)=O)ccc3C)noc2c1` [Example 19, (S)-2-(3-Methyl-6-methylsulfonylpyridin-2-yl)-1-[2-(6-methylbenzo[d]isoxazol-3-yl)phenyl]ethan-1-amine hydrochloride], the efflux ratio at 1 h, 10 μM in [1] is 12.4. Moreover, the IC50 in data set [2] was found to be 13.1 µM; in data set [3], 2.9 µM; in data set [4], 1.3 µM; in data set [5], 11.5 µM; in [6] it was 1.4 µM.
Consider `Cc1ccc(S(C)(=O)=O)nc1C[C@H](N)c1ccccc1-c1noc2cc(F)ccc12` [Example 24, (S)-1-[2-(6-Fluorobenzo[d]isoxazol-3-yl)phenyl]-2-(3-methyl-6-methylsulfonylpyridin-2-yl)ethan-1-amine hydrochloride], for which the efflux ratio at 1 h, 10 μM in data set [1] turned out to be 10.4. The half-maximal inhibitory concentration (IC50) amounted to 7.8 µM in data set [2]; 4.2 µM in data set [3]; 3.4 µM in data set [4]; 22.4 µM in [5]; 1.3 µM in data set [6].
For the compound `CS(=O)(=O)c1ccc(F)c(C[C@H](N)c2ccccc2-c2noc3cc(Cl)ccc23)n1` [Example 13, (S)-1-[2-(6-Chlorobenzo[d]isoxazol-3-yl)phenyl]-2-(3-fluoro-6-methylsulfonylpyridine-2-yl)ethan-1-amine hydrochloride], in [1], the efflux ratio at 1 h, 10 μM was 6.2. The IC50 in [2] is more than 30 µM; in data set [3], 3.2 µM; in data set [4] it was 1.4 µM; in data set [5], 15.1 µM; in [6] it was 2.6 µM.
`COc1cc2c(cc1OC)CC(=O)N(CCCN(C)C[C@H]1Cc3cc(OC)c(OC)cc31)CC2` [ivabradine, Ivabradine]: the “Effect on GPIAS in noise-exposed guinea pigs showing no behavioural tinnitus” value in data set [9] (control experiments, n=3) is “without effect on GPIAS; also recorded: without effect on gap detection”. Besides, the “Effect on reduced GPIAS after noise exposure” value in data set [9] (guinea pigs with impaired GPIAS, 5 mg/kg s.c.) is “rapidly and completely reversed; also recorded: fully restores GPIAS”. In addition, the “Effect on GPIAS (behavioural gap detection)” value in data set [10] was “reversed GPIAS; also recorded: restored”. Also, the Kp at 30 min in data set [11] came to 0.57. Also, the “Therapeutic window between analgesia and bradycardia” value in [12] was “little therapeutic window”. The “Effect on ABR threshold or latency” value in [13] is “no significant difference”.
